The values below come from publication PMC9714921 (PLOS Pathogens, 2022).

Where “and” joins values, the source holds several entries; their conditions need not be identical. Equal values may be shown once.

In one assay the test system is Gpu-ACR-16. In words: Voltage-clamp electrophysiology, N-AChR reconstituted in Xenopus laevis oocytes. It counts as cell-based, Gonglyonema pulchrum. How it is done:
(§1) cRNA for oocyte injection was prepared with the mMESSAGE mMACHINE T7 kit following manufacturers protocol (Ambion, USA). Concentration was determined using a Nanodrop spectrophotometer. Desired subunit combinations with associated accessory proteins were mixed and diluted with nuclease-free water to a final concentration of 250 ng/uL for each construct.
(§2) Adult female X. laevis oocyte extraction was performed in accordance with the McGill University Animal Use Protocol 2015–7758 following standard protocol. Briefly, frog ovary lobes were placed in a Ca^2+-free OR2 solution (82 mM NaCl, 2 mM KCl, 1 mM MgCl2, 5 mM HEPES buffer, pH 7.3) and manually divided into clusters of <10 oocytes with thin tweezers followed by a 90-minute incubation in 10 mg/mL collagenase type II (Sigma-Aldrich, USA). Oocytes were washed in Ca^2+-free OR2 and placed ND96 solution (NaCl 96 mM, KCl 2 mM, CaCl2 1.8 mM, MgCl2 1 mM and HEPES 5 mM, pH 7.3) supplemented with sodium pyruvate 2.5 mM [86] and incubated at 18°C until cRNA injection. Oocytes were injected with 50 nL (12.5 ng of each injected gene) of the desired cRNA subunit and accessory protein combination mix with the NanojectII (Drummond Scientific, USA). Following injection, oocytes were incubated in ND96 buffer at 18°C until electrophysiology. All electrophysiology was conducted two days post-injection, except for the expression analysis assay in which oocytes were measured every day after injection for three consecutive days.
(§3) All drugs were dissolved in recording solution (NaCl 100 mM, KCl 2.5 mM, CaCl2 1 mM, HEPES 5 mM, pH 7.3) to a stock concentration of 10 mM and diluted to their final recording concentrations. Oxantel and bephenium were first dissolved in DMSO to ensure a final recording concentration contained less than 0.1% DMSO. For agonist profiling, all drugs were diluted to a concentration of 100 μM.
Oocytes were placed individually in an RC3Z chamber (Harvard Apparatus, USA) submerged in recording solution (NaCl 100 mM, KCl 2.5 mM, CaCl2 1 mM, HEPES 5 mM, pH 7.3). The RC3Z chamber was connected to a perfusion system containing recording solution and ligand solutions. Pulled glass capillaries (World Precision Instruments, USA) were filled with 3M KCl and the tips clipped and checked for appropriate resistance (between 0.5 and 5 MΩ). A 3M KCl agar bridge grounded the oocyte bath chamber. Measurements were made using an Axon Axoclamp 900A amplifier with Digidata1550M. […] Ligand solutions were applied to the oocytes with an approximate flow rate of 1.2 m/s and current responses measured. Oocytes were exposed to the ligand solution until a distinct current peak was observed followed by a wash with the recording solution until current returned to baseline for a minimum of 10 seconds until the next ligand exposure. For BAPTA-AM exposed oocytes, oocytes were incubated in 100 μM BAPTA-AM for four hours prior to electrophysiology recording. Data was analyzed using Clampex 9.2 (Axon Instruments, USA) and statistical analysis and graphs produced in Prism (GraphPad version 9.1). T-tests were used to compare responses with error bars representing standard error. For concentration-response curves, individual oocyte current response to the different ligand concentrations were normalized to the response obtained with 300 μM. Data was fit using the Graphpad “log(agonist) vs normalized response–variable slope” equation, with 95% confidence intervals being reported. […] For examples of oocyte responses, recordings were filtered in Clampfit using the lowband pass at 40 Hz cutoff.

For assay [1], the system named is ASU-ECD (A. suum ECD in Tzc-ACR-16). In words: Voltage-clamp electrophysiology, A. suum/T. callipaeda ACR-16 chimera in oocytes. The settings on record: S2C Fig. It counts as cell-based. The method, then: (§4) B. malayi acr-16 and accessory proteins ric-3, unc-50, unc-74 and molo-1 were cloned from adult female B. malayi cDNA received as a gift from Dr. T. Geary using the primers described in S1 Table. B. malayi eat-18 was prepared from two overlapping oligonucleotide primers. Other subunits were synthesized from their predicted genome sequence (Gene Universal, USA) (S2 Table). […] All sequences were cloned into the pTD2 oocyte expression vector. Asu-ACR-16 and Tzc-ACR-16 chimeras were constructed using appropriate restriction enzymes, reciprocal exchange through ligation and confirmed by sequencing (McLab, USA).
as §1, §2, §3
(§5) Oocytes were placed individually in an RC3Z chamber (Harvard Apparatus, USA) submerged in recording solution (NaCl 100 mM, KCl 2.5 mM, CaCl2 1 mM, HEPES 5 mM, pH 7.3). The RC3Z chamber was connected to a perfusion system containing recording solution and ligand solutions. Pulled glass capillaries (World Precision Instruments, USA) were filled with 3M KCl and the tips clipped and checked for appropriate resistance (between 0.5 and 5 MΩ). A 3M KCl agar bridge grounded the oocyte bath chamber. Measurements were made using an Axon Axoclamp 900A amplifier with Digidata1550M. […] Ligand solutions were applied to the oocytes with an approximate flow rate of 1.2 m/s and current responses measured. Oocytes were exposed to the ligand solution until a distinct current peak was observed followed by a wash with the recording solution until current returned to baseline for a minimum of 10 seconds until the next ligand exposure. For BAPTA-AM exposed oocytes, oocytes were incubated in 100 μM BAPTA-AM for four hours prior to electrophysiology recording. Data was analyzed using Clampex 9.2 (Axon Instruments, USA) and statistical analysis and graphs produced in Prism (GraphPad version 9.1). T-tests were used to compare responses with error bars representing standard error. For concentration-response curves, individual oocyte current response to the different ligand concentrations were normalized to the response obtained with 300 μM.

The test system of assay [2] is ASU-ICL (A. suum ICL in Tzc-ACR-16). Described as above. The assay is classed as cell-based. The following applies: S2C Fig. The method, then:
as §4, §1, §2, §3, §5

Assay [3] deals with ASU-TM (A. suum TM regions in Tzc-ACR-16). Described as above. The assay is classed as cell-based. The settings on record: S2C Fig. The method, then: as §4, §1, §2, §3, §5
For assay [4], the system named is TZC-ECD (T. callipaeda ECD in Asu-ACR-16). Described as above. It counts as cell-based. The settings on record: S2C Fig. How it is done: as §4, §1, §2, §3, §5
Assay [5] deals with TZC-ICL (T. callipaeda ICL in Asu-ACR-16). The description is as above. It counts as cell-based. The following applies: S2C Fig. The method, then:
as §4, §1, §2, §3, §5

The subject of assay [6] is TZC-TM (Tzc-TM region in A. suum ACR-16). The description is as above. The following applies: S2C Fig. It counts as cell-based. How it is done:
as §4, §1, §2, §3, §5

Another assay relates to C. elegans N-AChR. On the set-up: method as in Charvet et al., 2018 [40]. The settings on record: read-out: EC50 μM ACh; accessory protein Ric-3; ref Charvet et al., 2018 [40]; cited from earlier work.

Broadly, the EC50 is the concentration giving half of the maximal effect. Regarding `CC(=O)OCC[N+](C)(C)C` [ACh, acetylcholine], the “response to 100 μM acetylcholine normalized to Day 3 response” value in the assay with Gpu-ACR-16 (Day 1 post-injection) stood at 19 ± 6%; in the assay with Gpu-ACR-16 (Day 2 post-injection), 76 ± 6%. Besides, the “current response to 100 μM acetylcholine” value in the assay on Gpu-ACR-16 (No accessory protein) is given as 0 ± 0 nA; in the assay with Gpu-ACR-16 (No accessory protein, listed as acetylcholine), 0 ± 0 (n=14) nA; in the assay on Gpu-ACR-16 (co-injected: Bma-ric-3 (reference condition)), 1281 ± 197 nA; with Gpu-ACR-16 (co-injected: Bma-ric-3 (reference condition), listed as acetylcholine), 1281 ± 197 (n=8) nA; in the assay on Gpu-ACR-16 (co-injected: Bma-ric-3 + Bma-eat-18), 1264 ± 177 (n=10) ns nA; in the assay on Gpu-ACR-16 (co-injected: Bma-ric-3 + Bma-molo-1), 1049 ± 77 (n=16) ns nA. Besides, the “current response to 100 μM acetylcholine” value with Gpu-ACR-16 (co-injected: Bma-ric-3 + Bma-unc-50 + Bma-unc-74) is given as 847 ± 124 (n=14) ns nA; with Gpu-ACR-16 (co-injected: Bma-ric-3 + Bma-unc-50 + Bma-unc-74 + Bma-eat-18), 1854 ± 83 nA; with Gpu-ACR-16 (co-injected: Bma-ric-3 + Bma-unc-50 + Bma-unc-74 + Bma-eat-18, listed as acetylcholine), 1854 ± 83 (n=14) nA; in the assay on Gpu-ACR-16 (co-injected: Bma-ric-3 + Cel-emc-6), 1628 ± 123 (n=17) ns nA; in the assay on Gpu-ACR-16 (co-injected: Bma-ric-3 + Cel-nra-2 + Cel-nra-4), 2553 ± 123 nA; in the assay with Gpu-ACR-16 (co-injected: Bma-ric-3 + Cel-nra-2 + Cel-nra-4, listed as acetylcholine) it was 2553 ±123 (n=12) nA. The “current response to 100 μM acetylcholine” value with Gpu-ACR-16 (co-injected: Hco-ric-3) is ~ 1400 nA; in the assay on Gpu-ACR-16 (co-injected: Hco-ric-3, listed as acetylcholine), 1403 ± 91 nA and 1403 ± 91 (n=14) ns nA. The EC50 in the assay on Gpu-ACR-16 (read-out: EC50 ACh, concentration-response 0.3-300 μM, normalized to 300 μM, with 95% CI) is 10.5 µM; in the assay on C. elegans N-AChR, 22 ± 1.2 µM. Further, the “response to ACh” value in assay [1] was 1819 ± 115 nA; in assay [2], 2237 ± 98 nA; in assay [3], 24 ± 8 nA; in assay [4] it was 42 ± 9 nA; in assay [5] it was 1959 ± 78 nA; in assay [6] it was 2917 ± 105 nA.
